Several values for one entry are separate records, joined by “and”; a condition that tells them apart may be missing. Identical values can stand only once. Entries after “also recorded” stand apart in the source; their conditions may differ. Like-named read-outs stand apart in the source and are kept apart here.
What was measured:
[1] = biological target: T1, cloned human MT1 receptors (Homo sapiens, UniProt P48039); test: 2-[125I]iodomelatonin competition binding, human MT1 in NIH3T3 cells; settings: calculated from IC50 by Cheng-Prusoff, mean of at least three determinations
T1 construct: expressed in transfected cells
T1 sequence (P48039 whole entry): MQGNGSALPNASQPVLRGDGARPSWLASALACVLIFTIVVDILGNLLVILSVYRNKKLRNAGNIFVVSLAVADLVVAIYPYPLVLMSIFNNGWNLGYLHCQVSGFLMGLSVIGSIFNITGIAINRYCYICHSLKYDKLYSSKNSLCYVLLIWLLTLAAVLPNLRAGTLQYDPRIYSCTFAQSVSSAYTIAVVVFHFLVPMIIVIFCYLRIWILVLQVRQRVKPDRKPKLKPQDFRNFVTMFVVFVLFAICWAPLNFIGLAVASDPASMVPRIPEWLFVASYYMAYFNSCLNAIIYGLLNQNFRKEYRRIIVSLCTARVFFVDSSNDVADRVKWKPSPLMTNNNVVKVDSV
Protocol: (§1) Membranes were incubated for 90 min at 37° C. in binding buffer (Tris/HCl 50 mM, pH 7.4). The final membrane concentration was 5-10 μg of protein per tube. […] The pKi values are the mean of at least three independent determinations performed in duplicate. To define the functional activity of the compounds of Formula (I) at the MT1 and MT2 receptor subtypes, [^35S]GTPγS binding assays in NIH3T3 cells expressing human-cloned MT1 or MT2 receptors were performed. The amount of bound [^35S]GTPγS is proportional to the level of analogue-induced G-protein activation and is related to the intrinsic activity of the compound (i.e. a compound of Formula (I)) under study. […] Nonspecific binding was assessed using non-radiolabeled GTPγS (10 μM). […] Basal stimulation is the amount of [^35S]GTPγS specifically bound in the absence of the compounds of Formula (I) and was taken as 100%. […] All of the measurements were performed in triplicate.

[2] = biological target: T2, cloned human MT2 receptors (Homo sapiens, UniProt P49286); test: 2-[125I]iodomelatonin competition binding, human MT2 in NIH3T3 cells; settings: human MT2 in NIH3T3 cells; calculated from IC50 by Cheng-Prusoff; mean of at least three determinations
T2 construct: expressed in transfected cells
T2 sequence (P49286 1-362): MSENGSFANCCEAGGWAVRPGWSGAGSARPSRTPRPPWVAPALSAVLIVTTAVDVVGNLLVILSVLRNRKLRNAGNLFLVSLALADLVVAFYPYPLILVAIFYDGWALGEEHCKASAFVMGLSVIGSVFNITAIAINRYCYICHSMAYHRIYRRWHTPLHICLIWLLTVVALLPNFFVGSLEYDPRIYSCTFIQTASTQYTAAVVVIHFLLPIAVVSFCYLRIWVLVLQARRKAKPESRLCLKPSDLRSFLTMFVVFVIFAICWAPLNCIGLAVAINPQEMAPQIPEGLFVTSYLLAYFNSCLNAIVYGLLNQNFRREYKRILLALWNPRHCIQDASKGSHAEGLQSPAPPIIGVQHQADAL
Protocol: as §1

[3] = biological target: T1, cloned human MT1 receptors; test: [35S]GTPγS binding assay, NIH3T3 cells expressing human MT1; type: biochemical; settings: maximal net effect relative to MLT
Protocol: as §1

[4] = biological target: T2, cloned human MT2 receptors; test: [35S]GTPγS binding assay, NIH3T3 cells expressing human MT2; type: biochemical; settings: maximal net effect relative to MLT
Protocol: as §1

[5] = tested on: Adult Sprague Dawley rats; test: Elevated plus maze (EPM); type: in vivo, rat; settings: diazepam 2 mg/kg, injected 45 min before test
Protocol: The maze is comprised of two open arms (50×10 cm) and two closed arms (50×10×40 cm) that extend from a common central platform (10×10 cm). The apparatus, made of wood (painted black) was elevated to a height of 80 cm above floor level. The closed arms are located opposite one another. Behavior is recorded over a period of 5 min using a video camera positioned directly above the maze and rated by an observer blind to drug conditions. The major measure of interest is the amount of time spent in the open arms. As an index of general activity and distribution, the total number of entries into both open and closed arms was also recorded. […] In order to increase the sensitivity of this test to anxiolytic activity, tests are carried out under normal room illumination (25 W bulb).

Sprague Dawley rats = test: Novelty-Induced Suppressed Feeding (NSF) Test; type: in vivo, rat; settings: diazepam 2 mg/kg s.c., 45 min before the test
Protocol: The NSF test is used to assess the anti-anxiety effect of a drug [Bodnoff et al. Psychopharmacology 1988, 95(3), 298-307]. Sprague Dawley rats were used in the NSF test. The testing apparatus comprises a brightly lit open area covered with lab chow pellets. Forty-eight hours prior to behavioral testing, all food was removed from the apparatus. Animals treated with compound 5b (40 or 80 mg/kg) were injected 60 min before the test, whereas animals treated with vehicle (DMSO/saline 7:3) or diazepam were injected 45 min before the test. The drugs were administered subcutaneously and the experiments were conducted after 5:30 PM. The latency to feed, defined as chewing the food as opposed to merely sniffing or playing with a pellet, was then recorded (Table 6). The experiment was terminated for those animals that had not begun eating within a period of 360 seconds, which animals were assigned a latency score of 360 seconds. All analyses were conducted using Sigma Stats and SPSS software. The results are expressed as the mean±SEM per n (number) animals tested (*, p<0.01, ANOVA or t test).

[6] = tested on: Male rats (Sprague-Dawley); test: EEG and EMG sleep recordings (slow wave sleep, REM sleep, wakefulness); type: in vivo, rat
Protocol: Male rats (Sprague-Dawley) weighing approximately 300-340 g were used for surgical implantation of electroencephalogram (EEG) and electromyogram (EMG) electrodes. Following the recovery from surgery, the animals were housed separately in cages and kept on a 12-hour light/dark cycle (12 h light-12 h dark, 7:30 AM lights on) at a controlled temperature (21° C.). The rats had free access to food and water ad libitum.
Rats were anaesthetized using equithesin (425 mg chloral hydrate, 1 ml 100% ethanol, 98 mg pentobarbitone, 213 mg magnesium sulphate and 3 ml propylene glycol, sterile water per 10 ml of solution; 1 ml per 300 g body weight i.p.) and placed in a stereotactic frame. The skull was exposed and carefully cleaned. Two stainless-steel epidural electrodes were implanted for the registration of the EEG under stereotactic control, through 1.5 mm burr holes at the coordinates corresponding to the right parietal-occipital cortex (AP=−2 mm L=3 mm; AP=−7 mm L=3 mm) and the left parietal-occipital cortex (AP=−4.5 mm L=3 mm) according to the atlas by Paxinos (The Rat Brain in Stereotaxic Coordinates, Academic Press, 1995). Three stainless steel wire electrodes, isolated except for the last few millimeters, were implanted into the neck muscles (two bilaterally and one in the middle) for the monitoring of the EMG. The EEG epidural electrodes and the EMG wires were fitted to a six-pin female connector. For fixation to the skull, the wires and connector were covered with dental acrylic (Coltene/Whaledent Inc. USA). The animals were allowed to recover from the surgery for at least 3-4 days.
Twenty-four hours (24 h) following the surgery, the rats were placed in the recording room from noon to 9:00 PM, for 3-4 days. The rats were connected to the 6-flat cable (3M), in a freely-moving manner, from 6:00 PM to 9:00 PM for habituation. No recordings were performed at this time, however, the tolerance to the cable and the sleep behavior were observed.
Following 3-4 days of habituation, the rats received the injection of a vehicle (DMSO/saline 7:3, 0.2 ml s.c.) at 6:00 PM and the recording was carried out until 9:00 PM. On the following day the rats received diazepam (2 mg/kg, s.c.) at 6:00 PM and the recording was performed until 9:00 PM. Four days following the injection of diazepam, the rat received 5b (40 mg/kg s.c.) and the recording also performed from 6 to 9 PM.
For each experiment, a rat was placed individually in the cage and monitoring of the signal was carried out via the attachment of a non-restraining 6-wire flat cable and a female connector, which was connected to an impedance transformer with a gain of 10, located above the cage. The EEG signal was amplified (resulting in a total gain of 10,000) and locally filtered. The EMG signal was amplified as the EEG, (EEG: low filter 1.0 Hz; high 1 KHz, EMG: low filter 30.0 Hz; high 3 KHz). The power spectra analysis was performed for identification of the sleep stages. The behavior of the animals was observed during the experiment (eye movements, ambulation, rearing etc.).
The three classical vigilance-sleep states described in the rat were discriminated on the basis of the cortical EEG and neck EMG, following the classification by Ruigt et al. (Electroencephalography and clinical Neurophysiology, 1989, 73: 52-63). Wakefulness was identified by a low-amplitude and desynchronized EEG with sustained EMG activity. Slow wave sleep (SWS, includes Quiet sleep, deep sleep and Pre-REM) was clearly distinguished by high-voltage delta waves (2-4 Hz) and spindles associated with a […] EMG activity. Pre-REM sleep was characterized by a clear theta rhythm in the EEG, frequently alternating with short lasting, high voltage spindles. REM sleep was characterized by a low-amplitude EEG with a pronounced theta rhythm (5.5-8.5 Hz), a complete loss of muscle tone, and a low voltage EMG. […]

[7] = diazepam 2 mg/kg s.c., Mean ± SEM of 11 rats
[8] = diazepam 2 mg/kg s.c., Mean ± SEM of 11 rats, listed as diazepam
[9] = diazepam 2 mg/kg s.c., individual rats 1-11

CCCC(=O)NCCN(c1ccccc1)c1cccc(OC)c1 [5n, N-{2-[(3-Methoxyphenyl)-phenylamino]ethyl}butanamide]
MT1 pKi [1]: 8.38 ± 0.01 | MT2 pKi [2]: 9.98 ± 0.26 | MT1 IAr ± SEM (relative intrinsic activity) [3]: 1.01 ± 0.04 | MT2 IAr ± SEM (relative intrinsic activity) [4]: 0.73 ± 0.02 | melting point: 50 to 52 °C

CN1C(=O)CN=C(c2ccccc2)c2cc(Cl)ccc21 [Diazepam]
Head Dips [5]: 11.37 ± 2.12 (P = 0.01) | Percentage of time in Closed Arms [5]: 67.75 ± 5.87 (P = 0.007) % | Percentage of time in Open Arms [5]: 32.25 ± 5.9 (P = 0.006) % | Total time duration in the Closed Arms [5]: 178.71 ± 18.16 (P = 0.006) sec/closed arm | Total time duration in the Open Arms [5]: 122.0 ± 18.0 (P = 0.008) sec/open arm | Head Dips ([5]; listed as diazepam): increase in the number of head dips | Latency (sec) to feed (Sprague Dawley rats): 36.10 ± 15.32 (P ≦ 0.001)* sec | Latency (sec) to feed (Sprague Dawley rats; listed as diazepam): decreased latency to feed | Slow Wave Sleep Duration [6]: 58.45 min and 89.15 min and 84 min and 105.18 min and 99.03 min and 103.14 min and 92.36 min and 114.55 min and 94.85 min and 88.22 min and 83.9 min | Slow Wave Sleep Latency [6]: 18.02 min and 3.98 min and 8.25 min and 2.86 min and 6.93 min and 3.06 min and 18.42 min and 13.59 min and 22.5 min and 6.51 min and 26.36 min | Wakefulness Duration [6]: 69.58 min and 73.27 min and 68.04 min and 83.4 min and 62.00 min and 82.58 min and 85.76 min and 66.32 min and 115.52 min and 71.04 min and 80.79 min | REM Sleep Duration [6, 7]: 6.5 ± 0.7 min | REM Sleep Latency [6, 7]: 74.5 ± 5.2 min | REM Sleep Mean of a Single Episode [6, 7]: 1.43 ± 0.11 min | REM Sleep Number (episodes) [6, 7]: 4.6 ± 0.5 episodes | Slow Wave Sleep Duration [6, 7]: 92.0 ± 4.4 min | Slow Wave Sleep Mean of a Single Episode [6, 7]: 5.4 ± 0.38 min | Slow Wave Sleep Number (episodes) [6, 7]: 18.0 ± 1.6 episodes | Wakefulness Duration [6, 7]: 78.2 ± 4.43 min | Wakefulness Mean of a Single Episode [6, 7]: 2.7 ± 0.84 min | Wakefulness Number (episodes) [6, 7]: 17.0 ± 1.52 episodes | REM Sleep Duration (min) [6, 8]: significantly decreases | REM Sleep Latency (min) [6, 8]: significantly increases | REM Sleep Number (episodes) [6, 8]: significantly decreases | Slow Wave Sleep Duration (min) [6, 8]: increase the duration of the SWS; also recorded: significantly increases | Slow Wave Sleep Latency (min) [6, 8]: significantly decreases | Slow Wave Sleep Mean of a Single Episode (min) [6, 8]: significantly increase | Slow Wave Sleep Number (episodes) [6, 8]: no influence | Wakefulness Duration (min) [6, 8]: significantly decreases | Wakefulness Number (episodes) [6, 8]: no influence | REM Sleep Duration [6, 9]: 6.04 min and 5.45 min and 12.03 min and 5.18 min and 7.71 min and 8.81 min and 4.23 min and 5.86 min and 2.55 min and 8.52 min and 5.62 min | REM Sleep Latency [6, 9]: 102.43 min and 56.83 min and 56.59 min and 96.4 min and 61.69 min and 93.4 min and 72.26 min and 86.41 min and 58.92 min and 73.3 min and 61.33 min | REM Sleep Mean of a Single Episode [6, 9]: 1.51 min and 1.816 min and 1.718 min and 1.295 min and 1.542 min and 0.978 min and 1.05 min and 1.465 min and 0.85 min and 2.13 min and 1.405 min | REM Sleep Number (episodes) [6, 9]: 4 episodes (6×) and 3 episodes (2×) and 7 episodes and 5 episodes and 9 episodes | Slow Wave Sleep Mean of a Single Episode [6, 9]: 6.49 min and 7.42 min and 3.11 min and 5.53 min and 4.3 min and 5.15 min and 4.39 min and 4.98 min and 6.77 min and 5.18 min and 6.45 min | Slow Wave Sleep Number (episodes) [6, 9]: 9 episodes and 12 episodes and 27 episodes and 19 episodes and 23 episodes (2×) and 20 episodes and 21 episodes and 14 episodes and 17 episodes and 13 episodes | Wakefulness Mean of a Single Episode [6, 9]: 12.83 min and 5.92 min and 4.03 min and 3.66 min and 3.05 min and 4.00 min and 3.79 min and 2.69 min and 5.5 min and 5.71 min and 6.02 min | Wakefulness Number (episodes) [6, 9]: 9 episodes and 12 episodes and 20 episodes and 19 episodes and 24 episodes and 17 episodes and 22 episodes and 23 episodes and 15 episodes (2×) and 11 episodes

Source: patent US8791163B2 (McGill University, priority 2006, dated 2014)
